The values below come from ChEMBL document CHEMBL1909046, “DrugMatrix in vitro pharmacology data”.

Test [1] concerns the target Mitogen-activated protein kinase 3 (Homo sapiens, UniProt P27361). The experiment in a line: DRUGMATRIX: Protein Serine/Threonine Kinase, ERK1 enzyme inhibition (substrate: Myelin Basic Protein). Set-up: species or system Escherichia coli. Particulars: Not Active = under 50% inhibition at 10 µM.
The target in test [2] is T1, C-X-C chemokine receptor type 1 (Homo sapiens, UniProt P25024). Also: in other assays of this panel Not Active means under 50% inhibition at 10 µM.
T1 sequence (P25024 whole entry): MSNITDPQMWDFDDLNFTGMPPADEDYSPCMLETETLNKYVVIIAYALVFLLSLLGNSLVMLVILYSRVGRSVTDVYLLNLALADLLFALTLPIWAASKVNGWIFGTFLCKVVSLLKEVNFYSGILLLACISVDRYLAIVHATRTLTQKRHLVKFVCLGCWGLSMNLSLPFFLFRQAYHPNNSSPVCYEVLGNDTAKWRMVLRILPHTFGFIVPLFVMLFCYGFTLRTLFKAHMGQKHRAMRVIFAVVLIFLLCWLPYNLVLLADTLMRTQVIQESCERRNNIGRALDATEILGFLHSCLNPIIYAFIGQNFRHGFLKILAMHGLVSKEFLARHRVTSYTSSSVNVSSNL

Test [3] concerns the target T2, Angiotensin-converting enzyme (Oryctolagus cuniculus, UniProt P12822).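 Also: enzymatic inhibition of angiotensin-converting enzyme measured with FAPGG as the substrate; in other assays of this panel Not Active means under 50% inhibition at 10 µM.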
T2 sequence (P12822 whole entry): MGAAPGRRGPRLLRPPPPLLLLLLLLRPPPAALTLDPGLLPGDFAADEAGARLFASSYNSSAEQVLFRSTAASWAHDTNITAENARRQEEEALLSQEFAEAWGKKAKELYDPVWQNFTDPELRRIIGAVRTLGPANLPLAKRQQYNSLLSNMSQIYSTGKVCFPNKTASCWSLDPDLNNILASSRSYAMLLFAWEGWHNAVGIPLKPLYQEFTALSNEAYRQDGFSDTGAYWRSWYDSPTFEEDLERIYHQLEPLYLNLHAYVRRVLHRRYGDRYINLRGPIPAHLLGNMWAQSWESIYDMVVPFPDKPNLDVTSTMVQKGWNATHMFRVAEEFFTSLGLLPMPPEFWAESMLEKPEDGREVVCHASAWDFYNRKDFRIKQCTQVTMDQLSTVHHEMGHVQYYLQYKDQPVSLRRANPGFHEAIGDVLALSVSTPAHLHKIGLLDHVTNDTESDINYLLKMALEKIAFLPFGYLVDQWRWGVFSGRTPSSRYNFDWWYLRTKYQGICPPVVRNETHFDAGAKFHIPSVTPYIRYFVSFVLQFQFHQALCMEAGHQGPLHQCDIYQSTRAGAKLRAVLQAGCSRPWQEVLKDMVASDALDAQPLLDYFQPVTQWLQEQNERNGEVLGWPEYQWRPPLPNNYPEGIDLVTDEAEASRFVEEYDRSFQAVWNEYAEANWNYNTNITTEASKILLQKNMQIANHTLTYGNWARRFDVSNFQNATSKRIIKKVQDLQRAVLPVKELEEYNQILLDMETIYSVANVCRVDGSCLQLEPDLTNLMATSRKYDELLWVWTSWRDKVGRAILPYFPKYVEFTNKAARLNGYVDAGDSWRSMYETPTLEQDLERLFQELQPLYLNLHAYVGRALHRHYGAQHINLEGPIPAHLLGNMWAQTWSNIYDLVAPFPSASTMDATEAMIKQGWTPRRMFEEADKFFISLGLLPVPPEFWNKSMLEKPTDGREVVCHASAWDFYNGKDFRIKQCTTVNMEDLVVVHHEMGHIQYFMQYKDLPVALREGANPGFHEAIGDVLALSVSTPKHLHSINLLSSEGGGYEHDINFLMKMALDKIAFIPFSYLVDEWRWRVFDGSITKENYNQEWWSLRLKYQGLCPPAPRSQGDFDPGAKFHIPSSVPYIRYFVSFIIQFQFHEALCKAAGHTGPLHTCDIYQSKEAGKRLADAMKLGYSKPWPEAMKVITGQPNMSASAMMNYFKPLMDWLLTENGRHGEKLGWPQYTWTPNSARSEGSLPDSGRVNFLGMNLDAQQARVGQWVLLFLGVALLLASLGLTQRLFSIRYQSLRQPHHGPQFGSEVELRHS
The class given is tissue-based, Lung.

A further test addresses Vasopressin V1a receptor (Homo sapiens, UniProt P37288). Type of test: cell membranes, Membrane. Conditions: hek293.
The target of test [4] is Tyrosine-protein kinase Lck (Homo sapiens, UniProt P06239). The experiment in a line: DRUGMATRIX: Protein Tyrosine Kinase, LCK enzyme inhibition (substrate: Poly(Glu:Tyr)). Type of test: cell-based, Insect cells. Particulars: insect cells; Not Active = under 50% inhibition at 10 µM.
The target in the next test is Acetylcholinesterase (Homo sapiens, UniProt P22303). Nature of the test: DRUGMATRIX: Acetylcholinesterase enzyme inhibition (substrate: acetylthiocholine). Type of test: cell-based, HEK293. Particulars: hek293; Not Active = under 50% inhibition at 10 µM.
Test [5] deals with T3, Alpha-2A adrenergic receptor (Homo sapiens, UniProt P08913).
T3 sequence (P08913 whole entry): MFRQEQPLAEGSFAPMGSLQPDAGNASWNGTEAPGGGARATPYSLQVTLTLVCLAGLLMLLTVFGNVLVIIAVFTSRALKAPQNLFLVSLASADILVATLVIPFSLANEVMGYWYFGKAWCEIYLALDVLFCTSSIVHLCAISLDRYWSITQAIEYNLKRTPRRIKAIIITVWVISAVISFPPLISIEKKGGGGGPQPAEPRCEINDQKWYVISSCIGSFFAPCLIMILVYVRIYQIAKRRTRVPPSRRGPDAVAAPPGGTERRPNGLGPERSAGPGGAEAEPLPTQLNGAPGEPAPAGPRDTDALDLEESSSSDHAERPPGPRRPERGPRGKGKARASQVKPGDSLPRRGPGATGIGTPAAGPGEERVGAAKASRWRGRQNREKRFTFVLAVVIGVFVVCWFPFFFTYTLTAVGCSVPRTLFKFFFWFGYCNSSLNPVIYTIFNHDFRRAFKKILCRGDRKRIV
The class given is cell membranes, Sf9, Membrane.

Test [6] has as its target T4, Neuropeptide Y receptor type 2 (Homo sapiens, UniProt P49146). Also: in other assays of this panel Not Active means under 50% inhibition at 10 µM.
T4 sequence (P49146 whole entry): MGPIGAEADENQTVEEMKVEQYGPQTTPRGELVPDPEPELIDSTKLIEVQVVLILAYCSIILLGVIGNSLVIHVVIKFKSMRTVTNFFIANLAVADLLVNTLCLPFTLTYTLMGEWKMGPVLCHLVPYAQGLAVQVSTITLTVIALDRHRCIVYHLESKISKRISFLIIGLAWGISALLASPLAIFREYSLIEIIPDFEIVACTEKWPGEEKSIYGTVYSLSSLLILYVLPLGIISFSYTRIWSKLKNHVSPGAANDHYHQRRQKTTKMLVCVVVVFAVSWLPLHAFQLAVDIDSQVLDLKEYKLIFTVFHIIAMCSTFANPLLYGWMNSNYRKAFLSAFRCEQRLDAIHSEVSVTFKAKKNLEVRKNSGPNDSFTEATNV
The class given is cell membranes, Membrane. Particulars: kan-ts.

A further test concerns the target Estrogen receptor beta (Homo sapiens, UniProt Q92731). Conditions: sf9. Also: in other assays of this panel Not Active means under 50% inhibition at 10 µM.

Tyrosine-protein kinase Lck, sequence (P06239 whole entry): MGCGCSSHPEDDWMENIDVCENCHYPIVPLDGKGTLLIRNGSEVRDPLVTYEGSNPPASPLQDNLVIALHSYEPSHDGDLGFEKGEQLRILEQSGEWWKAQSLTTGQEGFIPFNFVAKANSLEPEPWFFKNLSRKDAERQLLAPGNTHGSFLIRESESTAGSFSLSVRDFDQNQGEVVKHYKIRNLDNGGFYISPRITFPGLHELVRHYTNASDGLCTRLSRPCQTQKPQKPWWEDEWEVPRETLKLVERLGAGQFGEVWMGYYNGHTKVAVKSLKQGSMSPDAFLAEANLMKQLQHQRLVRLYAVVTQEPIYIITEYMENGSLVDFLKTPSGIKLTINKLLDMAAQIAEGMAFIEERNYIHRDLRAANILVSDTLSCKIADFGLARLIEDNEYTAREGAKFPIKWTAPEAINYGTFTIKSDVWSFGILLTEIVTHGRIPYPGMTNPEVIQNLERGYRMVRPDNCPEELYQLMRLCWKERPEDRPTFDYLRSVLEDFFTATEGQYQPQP
Vasopressin V1a receptor, sequence (P37288 whole entry): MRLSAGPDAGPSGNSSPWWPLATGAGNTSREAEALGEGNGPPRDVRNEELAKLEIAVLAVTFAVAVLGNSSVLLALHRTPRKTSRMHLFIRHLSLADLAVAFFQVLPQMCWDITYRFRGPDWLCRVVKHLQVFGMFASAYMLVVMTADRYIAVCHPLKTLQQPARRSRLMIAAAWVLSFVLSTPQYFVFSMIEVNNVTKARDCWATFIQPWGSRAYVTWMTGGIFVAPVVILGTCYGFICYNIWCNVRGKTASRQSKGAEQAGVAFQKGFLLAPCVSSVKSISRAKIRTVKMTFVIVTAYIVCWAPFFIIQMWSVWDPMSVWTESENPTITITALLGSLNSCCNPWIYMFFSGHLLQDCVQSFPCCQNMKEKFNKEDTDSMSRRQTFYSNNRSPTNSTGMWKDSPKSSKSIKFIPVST
Acetylcholinesterase, sequence (P22303 whole entry): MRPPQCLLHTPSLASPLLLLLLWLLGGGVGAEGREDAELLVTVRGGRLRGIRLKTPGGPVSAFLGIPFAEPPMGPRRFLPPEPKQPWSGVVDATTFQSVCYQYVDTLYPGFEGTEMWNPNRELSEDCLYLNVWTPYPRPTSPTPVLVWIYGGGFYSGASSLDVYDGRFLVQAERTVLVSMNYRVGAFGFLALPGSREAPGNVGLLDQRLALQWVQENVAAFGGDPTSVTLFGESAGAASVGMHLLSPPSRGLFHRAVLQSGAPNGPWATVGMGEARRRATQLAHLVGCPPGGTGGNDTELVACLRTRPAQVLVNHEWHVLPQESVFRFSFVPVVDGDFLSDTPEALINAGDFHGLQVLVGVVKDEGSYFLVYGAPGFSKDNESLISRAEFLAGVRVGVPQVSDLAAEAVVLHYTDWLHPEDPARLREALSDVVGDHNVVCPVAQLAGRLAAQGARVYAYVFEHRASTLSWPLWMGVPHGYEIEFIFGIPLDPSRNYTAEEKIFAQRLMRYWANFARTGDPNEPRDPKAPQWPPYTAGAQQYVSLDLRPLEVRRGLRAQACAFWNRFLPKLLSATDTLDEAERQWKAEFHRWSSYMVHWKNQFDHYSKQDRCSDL
Mitogen-activated protein kinase 3, sequence (P27361 whole entry): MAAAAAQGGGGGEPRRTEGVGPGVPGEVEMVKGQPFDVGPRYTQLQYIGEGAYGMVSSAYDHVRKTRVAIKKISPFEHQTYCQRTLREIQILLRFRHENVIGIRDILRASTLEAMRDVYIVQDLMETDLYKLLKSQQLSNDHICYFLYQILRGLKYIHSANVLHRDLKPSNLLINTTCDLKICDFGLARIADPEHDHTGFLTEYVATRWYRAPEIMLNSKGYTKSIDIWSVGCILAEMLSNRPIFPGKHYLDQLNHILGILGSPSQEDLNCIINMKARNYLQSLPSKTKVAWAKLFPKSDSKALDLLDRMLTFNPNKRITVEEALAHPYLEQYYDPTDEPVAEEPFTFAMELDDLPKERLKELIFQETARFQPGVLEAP
Estrogen receptor beta, sequence (Q92731 whole entry): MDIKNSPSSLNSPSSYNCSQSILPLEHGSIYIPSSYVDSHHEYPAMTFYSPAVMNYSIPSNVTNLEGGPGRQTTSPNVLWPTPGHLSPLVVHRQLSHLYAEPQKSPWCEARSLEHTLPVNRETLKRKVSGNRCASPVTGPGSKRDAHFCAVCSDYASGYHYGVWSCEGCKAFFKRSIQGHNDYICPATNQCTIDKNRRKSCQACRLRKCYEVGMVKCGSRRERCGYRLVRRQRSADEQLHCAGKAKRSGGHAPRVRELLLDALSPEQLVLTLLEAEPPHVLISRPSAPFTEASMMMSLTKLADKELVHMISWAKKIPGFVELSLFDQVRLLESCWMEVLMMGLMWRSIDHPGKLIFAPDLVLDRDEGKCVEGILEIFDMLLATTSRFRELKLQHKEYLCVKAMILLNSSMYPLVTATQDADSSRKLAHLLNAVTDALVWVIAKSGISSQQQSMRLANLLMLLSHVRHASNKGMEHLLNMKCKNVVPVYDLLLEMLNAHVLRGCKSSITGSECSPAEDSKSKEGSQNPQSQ

As a reminder, the IC50 is the concentration that inhibits the measured activity by half. Take `CC(=O)N[C@@H]1[C@H](Oc2c3cc4cc2Oc2ccc(cc2Cl)[C@@H](O[C@@H]2O[C@@H](CO)[C@@H](O)[C@H](O)[C@@H]2NC(C)=O)[C@@H]2NC(=O)[C@H](NC(=O)[C@@H]4NC(=O)[C@H]4NC(=O)[C@@H](Cc5ccc(c(Cl)c5)O3)NC(=O)[C@H](N)c3ccc(O)c(c3)Oc3cc(O)cc4c3)c3ccc(O)c(c3)-c3c(O[C@H]4O[C@H](CO)[C@@H](O)[C@@H](O)[C@@H]4O)cc(O)cc3[C@@H](C(=O)O)NC2=O)O[C@@H](CO)[C@@H](O)[C@@H]1O`: the 50% inhibitory concentration (IC50) entry (in test [1]; in [2]; in [3]; at Vasopressin V1a receptor; in [4]; against Acetylcholinesterase) was “Not Active” in each case. The IC50 entry (in [5] (sf9); in test [6]; against Estrogen receptor beta) was “Not Active” in each case.
As for `COc1cc2c(c(OC)c1OC)-c1ccc(OC)c(=O)cc1[C@@H](NC(C)=O)CC2` [COLCHICINE], the IC50 entry (in [1]; in [2]; in test [3]; at Vasopressin V1a receptor; in [4]; against Acetylcholinesterase) was “Not Active” each time. The IC50 result (in [5] (sf9); in [6]; against Estrogen receptor beta) was “Not Active” throughout.
Broadly, the Ki is a measure of affinity in units of concentration, obtained from inhibition or displacement. Turning to `CC(=O)N1CCN(c2ccc(OCC3COC(Cn4ccnc4)(c4ccc(Cl)cc4Cl)O3)cc2)CC1` (stereo not given) [KETOCONAZOLE], the IC50 entry (in test [1]; in test [2]; in test [3]; against Vasopressin V1a receptor; in test [4]; against Acetylcholinesterase) was “Not Active” each time. Besides, the IC50 is 19.8 µM in [5] (read-out: IC50), “Not Active” in [6] and “Not Active” on Estrogen receptor beta. In test [5] (read-out: Ki), the inhibition constant (Ki) was 7.42 µM.
Take `C=CCN1CC[C@]23c4c5ccc(O)c4O[C@H]2C(=O)CC[C@@]3(O)[C@H]1C5` [NALOXONE]: the IC50 result (in test [1]; in test [2]; in [3]; against Vasopressin V1a receptor; in test [4]; at Acetylcholinesterase) was “Not Active” throughout. Also, the IC50 entry (in test [5] (sf9); in test [6]; against Estrogen receptor beta) was “Not Active” in each case.
Turning to `CC(C)NCC(O)COc1cccc2ccccc12` (stereo not given) [PROPRANOLOL], the IC50 entry (in test [1]; in test [2]; in [3]; against Vasopressin V1a receptor; in [4]; against Acetylcholinesterase) was “Not Active” throughout. Besides, the IC50 result (in test [5] (sf9); in [6]; against Estrogen receptor beta) was “Not Active” each time.
As for `COCCCOc1ccnc(C[S+]([O-])c2nc3ccccc3[nH]2)c1C` (stereo not given) [RABEPRAZOLE], the IC50 result (in test [1]; in [2]; in test [3]; against Vasopressin V1a receptor; in test [4]; on Acetylcholinesterase) was “Not Active” throughout. The IC50 result (in [5] (sf9); in test [6]; on Estrogen receptor beta) was “Not Active” each time.
For `CNC(=C[N+](=O)[O-])NCCSCc1ccc(CN(C)C)o1` [RANITIDINE], the half-inhibitory concentration (IC50) entry (in [1]; in [2]; in test [3]; against Vasopressin V1a receptor; in [4]; against Acetylcholinesterase) was “Not Active” each time. Further, the half-maximal inhibitory concentration (IC50) entry (in test [5] (sf9); in test [6]; at Estrogen receptor beta) was “Not Active” each time.
Regarding `CO[C@H]1/C=C/O[C@@]2(C)Oc3c(C)c(O)c4c(c3C2=O)C2=NC3(CCN(CC(C)C)CC3)NC2=C(NC(=O)/C(C)=C\C=C\[C@H](C)[C@H](O)[C@@H](C)[C@@H](O)[C@@H](C)[C@H](OC(C)=O)[C@@H]1C)C4=O` [RIFABUTIN], the IC50 result (in [1]; in [2]; in test [3]; at Vasopressin V1a receptor; in test [4]; on Acetylcholinesterase) was “Not Active” each time. Besides, the concentration for half-maximal inhibition (IC50) entry (in [5] (sf9); in test [6]; against Estrogen receptor beta) was “Not Active” each time.
`CC(C)CC(N(C)C)C1(c2ccc(Cl)cc2)CCC1` (stereo not given) [SIBUTRAMINE]: the IC50 entry (in [1]; in [2]; in [3]; against Vasopressin V1a receptor; in [4]; on Acetylcholinesterase) was “Not Active” in each case. The 50% inhibitory concentration (IC50) result (in test [5] (sf9); in test [6]; at Estrogen receptor beta) was “Not Active” throughout.
As to `[H]/N=C(/N)N[C@H]1[C@H](O)[C@@H](O)[C@H](O[C@@H]2O[C@@H](C)[C@](O)(C=O)[C@H]2O[C@@H]2O[C@@H](CO)[C@H](O)[C@@H](O)[C@@H]2NC)[C@@H](N/C(N)=N\[H])[C@@H]1O` [STREPTOMYCIN], the IC50 entry (in [1]; in test [2]; in test [3]; on Vasopressin V1a receptor; in test [4]; at Acetylcholinesterase) was “Not Active” each time. Moreover, the IC50 entry (in [5] (sf9); in test [6]; against Estrogen receptor beta) was “Not Active” each time.
With `COc1cc(NS(=O)(=O)c2ccc(N)cc2)nc(OC)n1` [SULFADIMETHOXINE], the concentration for half-maximal inhibition (IC50) result (in test [1]; in test [2]; in test [3]; against Vasopressin V1a receptor; in [4]; against Acetylcholinesterase) was “Not Active” each time. The IC50 entry (in test [5] (sf9); in test [6]; on Estrogen receptor beta) was “Not Active” each time.
